Experimental data taken from patent US20250002492A1, “COMPOSITIONS OF FOLATE ABSORPTION INHIBITORS AND METHODS THEREOF” (THE TEXAS A&M UNIVERSITY SYSTEM, priority 2023, published 2025).

How the values were obtained:
[1] = molecular target: T1, Folate Uptake Transporter (PCFT) in Caco2 cells (Homo sapiens, UniProt Q96NT5); test: Folate uptake transporter substrate assessment in Caco2 cell line (compound uptake with and without pemetrexed); format: in vitro ADME; conditions: positive control, test conc. 0.01 μM, radiolabelled
T1 construct: These cells express high levels of the PCFT/SLC46A1 receptor; host or cells: Caco-2
T1 sequence (Q96NT5 1-459): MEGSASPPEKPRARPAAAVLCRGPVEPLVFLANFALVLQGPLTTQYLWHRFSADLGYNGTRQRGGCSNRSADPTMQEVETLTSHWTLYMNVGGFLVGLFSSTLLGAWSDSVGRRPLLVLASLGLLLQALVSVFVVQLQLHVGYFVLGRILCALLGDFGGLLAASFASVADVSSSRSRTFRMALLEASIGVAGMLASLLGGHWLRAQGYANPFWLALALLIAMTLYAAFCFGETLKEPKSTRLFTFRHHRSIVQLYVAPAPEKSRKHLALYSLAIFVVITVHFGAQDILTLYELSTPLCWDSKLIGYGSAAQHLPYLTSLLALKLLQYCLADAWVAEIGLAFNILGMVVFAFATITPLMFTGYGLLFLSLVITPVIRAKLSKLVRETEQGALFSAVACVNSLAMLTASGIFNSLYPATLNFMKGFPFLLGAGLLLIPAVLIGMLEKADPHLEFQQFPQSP

[2] = molecular target: T1, Folate Uptake Transporter (PCFT) in Caco2 cells; test: as above; format: in vitro ADME; conditions: for cell permeability: Caco-2; for Uptake Ratio(−Inhibitor/+Inhibitor): human, Caco-2, 6 min, 1 μM, pH 5.5
Protocol: Cell Plates were Prepared According to the Methods of Example 8 Using Caco-2 Cells from American Type Culture Collection at Passage 37.
(§1) The transport buffer (HBSS with 10 mM MES, pH 5.5) was prepared by weighing 1.952 g of MES and 0.35 g sodium hydrogen carbonate and adding into 900 mL of pure water followed by sonication to dissolve the content. Following the transfer of 100 mL of 10×HBSS into the solution. The solution was placed on a stirrer, the pH was slowly adjusted with hydrochloric acid to 5.5, and then the solution was filtered to get HBSS solution (with 10 mM MES, pH 5.5).
The test compounds and folic acid (1 μM) substrate solutions were prepared by diluting with pH 5.5 buffer. Next, the test compounds and folic acid (1 μM) substrate solution+positive control inhibitor (pemetrexed, 50 μM) were prepared. For the solution without inhibitor, DMSO was diluted with corresponding substrate solution to get the working incubation solution.
For the solution with inhibitor, the pre-incubation solution was prepared by adding the positive control inhibitor (pemetrexed, 50 μM) in pH 5.5 buffer. For the solution without inhibitor, DMSO was diluted with pH 5.5 buffer and used as the vehicle control.
When the 8-10 day Caco-2 cultured cells reached confluence and were differentiated, they were ready to be used for transport studies. The Caco-2 plate was removed from the incubator, and the medium was removed from the 24-well Plates. Next, cells were washed 3 times with 300 μL of pre-warmed pH 5.5 buffer. Then, 300 μL of pre-incubation solution was added into each well and the plate was placed at 37° C. for 30 minutes. The assay was performed in duplicate. After 30 minutes pre-incubation, the pre-incubation solution was aspirated, and 300 μL of pre-warmed working incubation solution was added to start the transporter assay. After 6 minutes incubation, cells were washed by quickly adding/aspirating 300 μL of ice-cold pH 5.5 buffer 4 times. The pH 5.5 buffer was removed and 300 μL of pure water was added into each well. Freeze-thaw in liquid nitrogen and 37° C. incubator was repeated for 3 times to lyse cells. After, centrifugation at 3,300 g was performed for 30 seconds. Next, 50 μL of supernatant was transferred to 200 μL methanol or acetonitrile containing internal standard and centrifuged at 3,300 g for 30 minutes. 200 μL aliquots of the supernatants were used for LC-MS/MS analysis. Standards were treated the same as samples.
A BCA Kit was used to determine the protein content for each well. Bovine serum albumin at 2, 1, 0.5, 0.25, 0.125, 0.0625, 0.0313, 0.0156, 0.00781 and 0.00391 mg/mL was prepared in Phosphate Buffer Saline (PBS, pH 7.4). 10 μL of supernatant was mixed from the previous step with the same volume of PBS. 20 μL of standard or test sample was added into 96-well clear plate and mixed with 200 μL working reagent. After 30 minutes incubation at 37° C., the absorbance at 562 nm was measured on the microplate reader.
Standard-curves: prepared 200 μM DMSO Folic acid solution, samples of 1000 nm, 300 nm, 100 nm, 30 nM, and 10 nM prepared using a PH 5.5 buffer, and a PH 5.5 buffer containing 50 μM of pemetrexed, respectively.
All calculations were carried out using Microsoft Excel. Peak areas were determined from extracted ion chromatograms. Uptake rate, in unit of pmol/mg protein/min, is calculated using the following equation: Uptake rate=Conc./(Protein×Time); Conc. is concentration of drug in cell lysate (nM), Protein is the protein concentration of cell lysate (mg/mL), and Time is the incubation time (minute). Uptake ratio is calculated using the following equation: Uptake ratio=Uptake rate without inhibitor/Uptake rate with inhibitor. Note: The compound was considered as a potential substrate of a particular transporter when the uptake ratio was greater than 2.

[3] = molecular target: T1, Folate Uptake Transporter (PCFT) in Caco2 cells; test: Folate uptake transporter inhibition in Caco2 cell line ([3H]-folic acid uptake); format: cell-based; conditions: for inhibition at 50 µM: Caco-2, pH 5.5, test conc. 50 μM, read-out: Percentage inhibition (%); for effect on folate transport / uptake: Caco-2 cells, 50 μM
Protocol: Cell plates were prepared using Caco-2 cell culture medium consisting of Dulbecco's Modified Eagle's Medium (DMEM) with high glucose and L-glutamine supplemented with: 10% FBS, 1× penicillin-streptomycin mixture and 1×non-essential amino acids (NEAA) and medium was incubated at 37° C., 5% CO2 for 0.5 hour. Plates were prepared for cell seeding. Caco-2 cells from American Type Culture Collection at passage 44 were cultivated in T-75 flasks in a cell culture incubator set at 37° C., 5% CO2, 95% relative humidity. Cells reached 80-90% confluence before detaching and splitting. Cultivated cells in T-75 flasks were rinsed with 5 mL PBS and aspirated off. Then, 3 mL trypsin/EDTA was added, and cells were incubated at 37° C. for approximately 5 minutes or until the cells detached and floated. Trypsin/EDTA was inactivate by adding excess serum containing medium. Cell suspension was removed and transferred to a conical tube and cells were pelleted by centrifugation at 120×g for 5 minutes. Cells were resuspended in seeding medium at a density of 3×10^4 cells/well in 24-well plates. The plate was incubated for 8-10 days. The medium was replaced every other day, beginning no sooner than 48 hours after initial plating.
as §1
The [3H]-folic acid (10 nM) substrate solution was prepared using [3H]-folic acid (1 mCi/ml) diluted with pH 5.5 buffer. Next, the [3H]-folic acid (10 nM) substrate solution+test inhibitor (X μM) and the [3H]-folic acid (10 nM) substrate solution+positive control inhibitor (pemetrexed, 50 μM) were prepared. For the solution without inhibitor, DMSO was diluted with corresponding substrate solution to get the working incubation solution.
The pre-incubation solution was prepared by adding the same final concentration of test compound (X μM) and the known inhibitor (pemetrexed, 50 μM) in pH 5.5 buffer. For the solution without inhibitor, DMSO diluted with in pH 5.5 buffer was used as the vehicle control.
When the 8-10 day Caco-2 cultured cells reached confluence and were differentiated, they were ready to be used for transport studies. The Caco-2 plate was removed from the incubator, and the medium was removed from the 24-well Plates. Next, cells were washed 3 times with 300 μL of pre-warmed pH 5.5 buffer. Then, 300 μL of pre-incubation solution was added into each well and the plate was placed at 37° C. for 30 minutes. The assay was performed in duplicate. After 30 minutes pre-incubation, the pre-incubation solution was aspirated, and 300 μL of pre-warmed working incubation solution was added to start the transporter assay. After 6 minutes incubation, cells were washed by quickly adding/aspirating 300 μL of ice-cold pH 5.5 buffer 4 times. The pH 5.5 buffer was removed and 300 μL of pure water was added into each well. Freeze-thaw in liquid nitrogen and 37° C. incubator was repeated for 3 times to lyse cells. After, centrifugation at 3,300 g was performed for 30 seconds. Next, 50 μL of supernatant was transferred to Isoplate-96 Microplate. 200 μL of scintillation fluid was added to the 50 μL sample and radioactivity was measured by liquid scintillation counting in a MicroBeta 2 scintillation counter for 1 min/sample.
A BCA Kit was used to determine the protein content for each well. Bovine serum albumin at 2, 1, 0.5, 0.25, 0.125, 0.0625, 0.0313, 0.0156, 0.00781 and 0.00391 mg/mL was prepared in Phosphate Buffer Saline (PBS, pH 7.4). 10 μL of supernatant was mixed from the previous step with the same volume of PBS. […]

[4] = [3H]-folic acid 10 nM, 30 min pre-incubation, 6 min incubation

In the case of Folic acid [3,5,7,9-3H] sodium salt, the “Uptake Rate (pmol/mg protein/min)” value ([1]; DMSO (no inhibitor)) is reported as 0.02 pmol/mg protein/min, the “Uptake Ratio(−Inhibitor/+Inhibitor)” value ([1]; pemetrexed 50 μM) is reported as 2.66 and the “Uptake Rate (pmol/mg protein/min)” value ([1]; with pemetrexed 50 μM) is reported as 0.01 pmol/mg protein/min.
For Cc1cccc(-c2noc(C3Cc4nc[nH]c4CN3C(=O)Nc3cccc(F)c3)n2)c1 (stereo not shown) [MPOL_D_2, N-(3-fluorophenyl)-6-(3-(m-tolyl)-1,2,4-oxadiazol-5-yl)-3,4,6,7-tetrahydro-5H-imidazo[4,5-c]pyridine-5-carboxamide], the “cell permeability” value [2] was “highly permeable”, the “Uptake Ratio(−Inhibitor/+Inhibitor)” value [2] was 0.86 and the inhibition at 50 µM [3, 4] was -18.7%. For the same molecule, the “effect on folate transport / uptake” value ([3]; pH 5.5) was “promoted folate transport”.
With Cc1ccc(NC(=O)N2Cc3[nH]cnc3CC2c2nc(-c3ccc4c(c3)OCO4)no2)cc1 (stereo not shown) [MPOL_D_1, 6-(3-(benzo[d][1,3]dioxol-5-yl)-1,2,4-oxadiazol-5-yl)-N-(p-tolyl)-3,4,6,7-tetrahydro-5H-imidazo[4,5-c]pyridine-5-carboxamide] the “cell permeability” value [2] was “highly permeable”, the “Uptake Ratio(−Inhibitor/+Inhibitor)” value [2] was 1.02 and the inhibition at 50 µM [3, 4] was 25.5%. The “effect on folate transport / uptake” value ([3]; pH 5.5) was “inhibit folate uptake” and the “Percentage inhibition (%)” value ([3]; test conc. 50 μM, [3H]-folic acid 10 nM, pH 5.5, 30 min pre-incubation, 6 min incubation) was 25.25%.
Molecule Nc1nc2[nH]cc(CCc3ccc(C(=O)N[C@@H](CCC(=O)O)C(=O)O)cc3)c2c(=O)[nH]1 [Pemetrexed, reference compound] has an inhibition at 50 µM [3, 4] of 62.4%.
